# Results taken from patent US20240230656A1, “Predicting Prognosis and Treatment Response of Breast Cancer Patients Using Expression and Cellular Localization of N-Myristoyltransferase” (Oncodrex Inc., priority 2021, published 2024).
# What was measured:
# NMT1 = assay: MCF7 gene expression of NMT following insulin stimulation or rapamycin treatment (NMT1); format: cell-based; details: MCF7 cells
# Text: (§1) Example 9—MCF7 Gene Expression of NMT and WT1 Regulated Genes Following Insulin Stimulation
# (§2) NMT1 was also shown to bind to regions of DNA containing BASP1 regulated growth genes. […] This supports our prediction that phosphorylation is the leading PI3K/AKT/mTOR mediated regulatory mechanism responsible for NMT1 modulation.
# NMT2 = assay: MCF7 gene expression of NMT following insulin stimulation or rapamycin treatment (NMT2); format: cell-based; details: MCF7 cells
# Text: as §1, §2
substance,measurement,setting,value
insulin,NMT1 expression following treatment,NMT1,little change
same,NMT2 expression following treatment,NMT2,little change
